Measured values as given in US10919941B2, “Functional lipid constructs” (KODE BIOTECH LIMITED, priority 2007, dated 2021).
No end group written: not given here. *: point of attachment. For = O=C*

Experiments:
[1] = 25° C.; cited from earlier work
[2] = test system: Miltenberger antibody positive sera; test: BioVue AHG card column agglutination serology of modified red blood cells; type: cell-based, human; parameters: key: 0 or ‘−’ no agglutination; 0 or ‘−’ no agglutination; 1+ or 3=very weak agglutination; 1+ or 3=very weak agglutination; 2+ or 5=weak agglutination; 2+ or 5=weak agglutination; 3+ or 8=moderate strong agglutination; 3+ or 8=moderate strong agglutination; 4+ or 10/12=strong agglutination; 4+ or 10/12=strong agglutination; 4+ or 10/12=strong agglutination; details: construct 50 μg/ml
[3] = test system: Miltenberger Antibody Positive Panel; test: Reactivity of modified RBCs against the Miltenberger Antibody Positive Panel; type: cell-based, human; parameters: key to score vs panel 15 TAP2 / score vs panel 4 T7202 / score vs panel 8 T5896 / score vs panel 2 T217 / score vs panel 3 T165 / score vs panel 14 TAP1 / score vs panel 10 Mia / score vs panel 11 Mur / score vs panel 12 Gam / score vs panel 6 T6025 / score vs panel 7 T8445 / score vs panel 9 MIII / score vs panel 13 BoxH / reactivity with Panel Serum #7 (T8445) / agglutination score, Panel Serum #7 (T8445): 0 or ‘−’ no agglutination; 0 or ‘−’ no agglutination; 1+ or 3=very weak agglutination; 1+ or 3=very weak agglutination; 2+ or 5=weak agglutination; 2+ or 5=weak agglutination; 3+ or 8=moderate strong agglutination; 3+ or 8=moderate strong agglutination; 4+ or 10/12=strong agglutination; 4+ or 10/12=strong agglutination; 4+ or 10/12=strong agglutination; details: for sensitivity and specificity towards a human polyclonal antibody panel compared with sequence 1: MUT peptides, prior art sequence 1; for score vs panel 2 T217 / score vs panel 3 T165 / score vs panel 4 T7202 / score vs panel 8 T5896 / score vs panel 14 TAP1 / score vs panel 15 TAP2: Table 8, construct 50 μg/ml
[4] = test system: TAP1 serum (Taiwan Miltenberger antibody positive sample); test: Anti-MUT serum (TAP1) reactivity of modified RBCs (saline and AHG); type: cell-based, human; parameters: key: 0 or ‘−’ no agglutination; 0 or ‘−’ no agglutination; 1+ or 3=very weak agglutination; 1+ or 3=very weak agglutination; 2+ or 5=weak agglutination; 2+ or 5=weak agglutination; 3+ or 8=moderate strong agglutination; 3+ or 8=moderate strong agglutination; 4+ or 10/12=strong agglutination; 4+ or 10/12=strong agglutination; 4+ or 10/12=strong agglutination; details: construct 50 μg/ml (2 hours, 37° C.)
Protocol: The suspensions are either: • 1. incubated for 2 hours at 37° C. before being washed and suspended in a cell medium for serological analysis at a concentration of 0.8 to 3% (Method 1); or • 2. incubated for 3 to 4 hours at room temperature (circa 25° C.) followed by 18 hours at 4° C. before being washed and suspended in a cell medium for serological analysis at a concentration of 0.8 to 3% (Method 2).
Serological reactions are graded or scored by either of two established systems (0 or ‘−’ no agglutination, 1+ or 3=very weak agglutination, 2+ or 5=weak agglutination, 3+ or 8=moderate strong agglutination, 4+ or 10/12=strong agglutination)

[5] = test system: antibody negative serums; test: False positive reactions of modified RBCs with antibody negative serums/plasma; type: cell-based, human; parameters: key to Reaction score BioVue AHG, PAC samples 1-46, 49, 50, 52, 53 / Reaction score BioVue AHG, PAC sample 47 / Reaction score BioVue AHG, PAC sample 48 / Reaction score BioVue AHG, PAC sample 51 / agglutination score, T series serum 2 / agglutination score, T series serum 42 / agglutination score, T series serum 63 / agglutination score, T series serum 62 / agglutination score, T series serum 7 / agglutination score, T series serum 20 / agglutination score, T series serum 48 / agglutination score, T series serum 22 / agglutination score, T series serum 39 / agglutination score, T series serum 23 / agglutination score, T series serum 30 / agglutination score, T series serum 4 / agglutination score, T series serum 31 / agglutination score, T series serum 44 / agglutination score, T series serum 61 / agglutination score, T series serum 18 / agglutination score, T series serum 21 / agglutination score, T series serum 28 / agglutination score, T series serum 55 / agglutination score, false positive serum T18 / agglutination score, false positive serum T21 / agglutination score, false positive serum T28 / agglutination score, false positive serum T55 / agglutination score, false positive serum T78 / agglutination score, false positive serum T92: 0 or ‘−’ no agglutination; 0 or ‘−’ no agglutination; 1+ or 3=very weak agglutination; 1+ or 3=very weak agglutination; 2+ or 5=weak agglutination; 2+ or 5=weak agglutination; 3+ or 8=moderate strong agglutination; 3+ or 8=moderate strong agglutination; 4+ or 10/12=strong agglutination; 4+ or 10/12=strong agglutination; 4+ or 10/12=strong agglutination; details: for Reaction score BioVue AHG, PAC sample 47 / Reaction score BioVue AHG, PAC sample 48 / Reaction score BioVue AHG, PAC sample 51 / Reaction score BioVue AHG, PAC samples 1-46, 49, 50, 52, 53: blood donor plasma, construct 50 μg/ml (2 hours, 37° C.); for % False Positives: panel of blood donor plasma samples (PAC), BioVue AHG, construct 50 μg/ml
[6] = test system: Miltenberger antibody positive samples and false positive antibody negative samples; test: Reactivity of RBCs modified with capped peptide-lipid constructs in alternative configurations; type: cell-based; parameters: key: 0 or ‘−’ no agglutination; 0 or ‘−’ no agglutination; 1+ or 3=very weak agglutination; 1+ or 3=very weak agglutination; 2+ or 5=weak agglutination; 2+ or 5=weak agglutination; 3+ or 8=moderate strong agglutination; 3+ or 8=moderate strong agglutination; 4+ or 10/12=strong agglutination; 4+ or 10/12=strong agglutination; 4+ or 10/12=strong agglutination; details: capped construct 50 μg/mL, 2 hours at 37° C.
Protocol: Peptide-lipid constructs comprising CMG(2) and the following peptides were prepared:
The termini of the peptides were formylated and amidated to provide “capped” peptides. The reactivity of random Miltenberger antibody positive samples and three false positive antibody negative samples were tested against RBCs modified to incorporate these “capped” peptide-lipid constructs (50 μg/mL, 2 hours at 37° C.).
The reactivity was assessed and recorded in Table 24. […] However, linkage of the peptide via a Cys residue located at the amino terminus (as opposed to the carboxy terminus) appeared to reduce the likelihood of reactivity with the false-positive antibody negative samples and improve reactivity with the known antibody positive samples.

[7] = molecular target: Miltenberger antigen Mi?X on natural human red cells (human); test: BioVue AHG; cell C.BR
[8] = molecular target: Miltenberger antigen MiIII on natural human red cells (human) (UniProt P02724); test: AHG; cell R1Rz 11291347
[9] = molecular target: Miltenberger antigen MiIII on natural human red cells (human) (UniProt P02724); test: AHG; cell R2R2 11297161
[10] = molecular target: Miltenberger antigen Vw on natural human red cells (human) (UniProt P02724); test: BioVue AHG; cell 9422184
[11] = molecular target: Miltenberger antigen MiIII on natural human red cells (human) (UniProt P02724); test: BioVue AHG; cell 11297161
[12] = molecular target: Miltenberger antigen MiIII on natural human red cells (human) (UniProt P02724); test: AHG; cell Abtectcell III 8245009
[13] = molecular target: Miltenberger antigen MiIII on natural human red cells (human) (UniProt P02724); test: saline phase; cell R1Rz 11291347
[14] = molecular target: Miltenberger antigen MiIII on natural human red cells (human) (UniProt P02724); test: saline phase; cell R2R2 11297161

| Molecule | BioVue score vs TAP1 [2] | BioVue score vs positive sample 2 T217 (T) [2] | BioVue score vs positive sample 3 T165 (Mur) [2] | BioVue score vs positive sample 4 T7202 (M) [2] | BioVue score vs positive sample 8 T5896 (M + K + Mur) [2] | sensitivity and specificity towards a human polyclonal antibody panel compared with sequence 1 [3] | score vs panel 2 T217 [3] | score vs panel 3 T165 [3] | score vs panel 4 T7202 [3] | score vs panel 8 T5896 [3] | score vs panel 14 TAP1 [3] | score vs panel 15 TAP2 [3] | Reactivity with anti-MUT serum TAP1 [4] | Reaction score BioVue AHG, PAC sample 47 [5] | Reaction score BioVue AHG, PAC sample 48 [5] | Reaction score BioVue AHG, PAC sample 51 [5] | Reaction score BioVue AHG, PAC samples 1-46, 49, 50, 52, 53 [5] | % False Positives [5] [%] | agglutination score, antibody positive serum 55 [6] | agglutination score, antibody positive serum 61 [6] | other results |
| --- | --- | --- | --- | --- | --- | --- | --- | --- | --- | --- | --- | --- | --- | --- | --- | --- | --- | --- | --- | --- | --- |
| O=C(O)CCCC[C@@H]1SC[C@@H]2NC(=O)N[C@@H]21 [Biotin, [3aS-(3aα, 4β, 6aα)]-hexahydro-2-oxo-1H-thieno[3,4-d]imidazole-4-pentanoic acid] |  |  |  |  |  |  |  |  |  |  |  |  |  |  |  |  |  |  |  |  | solubility in 95% alcohol [1]: approximately 80 mg/100 mL; solubility in water [1]: approximately 22 mg/100 mL |
| M36: DOPE peptide-lipid construct: MUTK peptide SQTNDKHKRDT, leader c, spacer CMG(2) (SQTNDKHKRDTC; also: DOPE peptide-lipid construct via leader Cys, spacer CMG(2)) | 8 | 0 | 0 | 0 | 0 | superior sensitivity and specificity | 0 | 0 | 0 | 0 | 8 | 0 | 8 | 3 | 5 | 0 | 0 | 3.8 |  |  |  |
| M37: DOPE peptide-lipid construct: MUTK peptide TNDKHKRDTYP, leader c, spacer CMG(2) (TNDKHKRDTYPC; also: DOPE peptide-lipid construct via leader Cys, spacer CMG(2)) | 8 | 5 | 0 | 8 | 0 | superior sensitivity and specificity | 5 | 0 | 8 | 0 | 8 | 0 | 8 | 0 | 0 | 0 | 0 | 0 |  |  |  |
| M44: capped peptide-lipid construct comprising CMG(2) and ThrTyrProAlaHisThrAlaAsnGluCys (For-TYPAHTANEC-NH2; also: capped peptide-lipid construct comprising CMG(2)) |  |  |  |  |  |  |  |  |  |  |  |  |  |  |  |  |  |  | 8 | 8 | agglutination score, antibody positive serum 65 [6]: 10; agglutination score, antibody positive serum 67 [6]: 8; agglutination score, antibody positive serum 68 [6]: 0; agglutination score, antibody positive serum 71 [6]: 10; agglutination score, antibody positive serum 942-433813-3 [6]: 0; agglutination score, false-positive antibody negative serum PAC302 [6]: 5; agglutination score, false-positive antibody negative serum PAC332 [6]: 12; agglutination score, false-positive antibody negative serum PAC340 [6]: 5 |
| M45: capped peptide-lipid construct comprising CMG(2) and CysThrTyrProAlaHisThrAlaAsnGlu (For-CTYPAHTANE-NH2; also: capped peptide-lipid construct comprising CMG(2)) |  |  |  |  |  |  |  |  |  |  |  |  |  |  |  |  |  |  | 8 | 5 | agglutination score, antibody positive serum 65 [6]: 8; agglutination score, antibody positive serum 67 [6]: 10; agglutination score, antibody positive serum 68 [6]: 0; agglutination score, antibody positive serum 71 [6]: 10; agglutination score, antibody positive serum 942-433813-3 [6]: 5; agglutination score, false-positive antibody negative serum PAC302 [6]: 0; agglutination score, false-positive antibody negative serum PAC332 [6]: 0; agglutination score, false-positive antibody negative serum PAC340 [6]: 0 |
| TAP1 |  |  |  |  |  |  |  |  |  |  |  |  |  |  |  |  |  |  |  |  | agglutination score [7]: 12; agglutination score [8]: 10; agglutination score [9]: 10; agglutination score [10]: 5; agglutination score [11]: 10; agglutination score [12]: 10; agglutination score [13]: 8; agglutination score [14]: 8 |
